Measured values as given in US10927105B1 (Lundbeck La Jolla Research Center, Inc., priority 2017, dated 2021).

Each compound was assayed against MAGL (Homo sapiens (Human), UniProt Q99685) (assay: In vitro competitive activity-based protein profiling (human prefrontal cortex membrane fractions, FP-Rh probe), MAGL band). Conditions: read-out: MAGL IC50 (μM) (human); human prefrontal cortex membrane fractions.
Sequence of MAGL (Q99685 whole entry): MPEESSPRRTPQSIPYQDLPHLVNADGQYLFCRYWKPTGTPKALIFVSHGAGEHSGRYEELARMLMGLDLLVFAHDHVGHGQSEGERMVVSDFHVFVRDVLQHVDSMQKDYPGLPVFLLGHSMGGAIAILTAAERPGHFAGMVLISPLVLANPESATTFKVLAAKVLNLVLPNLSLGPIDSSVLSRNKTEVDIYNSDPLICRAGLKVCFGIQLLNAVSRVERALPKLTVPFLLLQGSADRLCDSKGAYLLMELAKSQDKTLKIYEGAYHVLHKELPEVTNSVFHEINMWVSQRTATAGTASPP
Description: Biological Evaluation In Vitro Competitive Activity-Based Protein Profiling.
Proteomes (mouse brain membrane fraction for mouse assays; human prefrontal cortex membrane fractions for human assays) (50 mL, 1.0 mg/mL total protein concentration) were preincubated with varying concentrations of inhibitors at 37° C. After 30 min, FP-Rh (1.0 mL, 50 mM in DMSO) was added and the mixture was incubated for another 30 min at 37° C. Reactions were quenched with SDS loading buffer (15 μL-4×) and run on SDS-PAGE.

SMILES | IC50
O=C(O)c1ccn(C(=O)N2C[C@H]3C[C@H](OCc4ccc(Cl)c(-c5nccs5)c4)C[C@H]3C2)n1 [Example 345, 1-(trans-5-((4-chloro-3-(thiazol-2-yl)benzyl)oxy)-octahydrocyclopenta-[c]pyrrole-2-carbonyl)-1H-pyrazole-3-carboxylic acid] | < 0.1 µM
Cc1cn(C(=O)N2CCN(Cc3cc(F)cc(Oc4ccc(Cl)cc4)c3)CC2)nc1C(=O)O [Example 346, 1-(4-(3-(4-chlorophenoxy)-5-fluorobenzyl)-piperazine-1-carbonyl)-4-methyl-1H-pyrazole-3-carboxylic acid] | < 0.1 µM
C[C@H]1CN(Cc2cc(F)cc(Oc3ccc(Cl)cc3)c2)CCN1C(=O)n1ccc(C(=O)O)n1 [Example 347, (S)-1-(4-(3-(4-chlorophenoxy)-5-fluorobenzyl)-2-methylpiperazine-1-carbonyl)-1H-pyrazole-3-carboxylic acid] | < 0.1 µM
C[C@@H]1CN(Cc2cc(F)cc(Oc3ccc(Cl)cc3)c2)CCN1C(=O)n1ccc(C(=O)O)n1 [Example 348, (R)-1-(4-(3-(4-chlorophenoxy)-5-fluorobenzyl)-2-methylpiperazine-1-carbonyl)-1H-pyrazole-3-carboxylic acid] | < 0.1 µM
C[C@H]1CN(Cc2cc(F)cc(Oc3ccccc3Cl)c2)CCN1C(=O)n1ccc(C(=O)O)n1 [Example 349, (S)-1-(4-(3-(2-chlorophenoxy)-5-fluorobenzyl)-2-methylpiperazine-1-carbonyl)-1H-pyrazole-3-carboxylic acid] | < 0.1 µM
C[C@@H]1CN(Cc2ccc(-c3ccccc3)cc2C(F)(F)F)CCN1C(=O)n1ccc(C(=O)O)n1 [Example 351, (R)-1-(2-methyl-4-((3-(trifluoromethyl)-[1,1′-biphenyl]-4-yl)methyl)-piperazine-1-carbonyl)-1H-pyrazole-3-carboxylic acid] | < 0.1 µM
O=C(O)c1ccn(C(=O)N2CCN(Cc3cccc(Oc4cnccc4C(F)(F)F)c3)CC2)n1 [Example 352, 1-(4-(3-((4-(trifluoromethyl)-pyridin-3-yl)oxy)-benzyl)-piperazine-1-carbonyl)-1H-pyrazole-3-carboxylic acid] | < 0.1 µM
O=C(O)c1ccn(C(=O)N2CCN(Cc3cccc(Oc4cccc(C(F)(F)F)n4)c3)CC2)n1 [Example 353, 1-(4-(3-((6-(trifluoromethyl)-pyridin-2-yl)oxy)benzyl)-piperazine-1-carbonyl)-1H-pyrazole-3-carboxylic acid] | < 0.1 µM
O=C(O)c1ccn(C(=O)N2CCN(Cc3cccc(Oc4ccnc(C(F)(F)F)c4)c3)CC2)n1 [Example 355, 1-(4-(3-((2-(trifluoromethyl)-pyridin-4-yl)oxy)benzyl)-piperazine-1-carbonyl)-1H-pyrazole-3-carboxylic acid] | < 0.1 µM
O=C(O)c1nn(C(=O)N2CC3CN(Cc4cc(Cl)cc(C(F)(F)F)c4)CC3C2)cc1Cl (centres unmarked) [Example 357, 4-chloro-1-(5-(3-chloro-5-(trifluoromethyl)-benzyl)-octahydropyrrolo-[3,4-c]pyrrole-2-carbonyl)-1H-pyrazole-3-carboxylic acid] | < 0.1 µM
O=C(O)c1ccn(C(=O)N2CCC3(CCN(Cc4cccc(-c5ccccc5)c4Cl)C3)CC2)n1 [Example 358, 1-(2-((2-chloro-[1,1′-biphenyl]-3-yl)methyl)-2,8-diazaspiro[4.5]-decane-8-carbonyl)-1H-pyrazole-3-carboxylic acid] | < 0.1 µM
C[C@@H]1CC[C@@H](C)N1c1cc(C(F)(F)F)ccc1CN1CCN(C(=O)n2ccc(C(=O)O)n2)CC1 [Example 359, 1-(4-(2-((2R,5R)-2,5-dimethylpyrrolidin-1-yl)-4-(trifluoromethyl)-benzyl)piperazine-1-carbonyl)-1H-pyrazole-3-carboxylic acid] | < 0.1 µM
C[C@H]1CC[C@H](C)N1c1cc(C(F)(F)F)ccc1CN1CCN(C(=O)n2ccc(C(=O)O)n2)CC1 [Example 360, 1-(4-(2-((2S,5S)-2,5-dimethylpyrrolidin-1-yl)-4-(trifluoromethyl)-benzyl)piperazine-1-carbonyl)-1H-pyrazole-3-carboxylic acid] | < 0.1 µM
O=C(O)c1nn(C(=O)N2CCN(Cc3ccc(N4CCCC4)cc3C(F)(F)F)CC2)cc1Cl [Example 368, 4-chloro-1-(4-(4-(pyrrolidin-1-yl)-2-(trifluoromethyl)-benzyl)piperazine-1-carbonyl)-1H-pyrazole-3-carboxylic acid] | < 0.1 µM
O=C(O)c1ccn(C(=O)N2CCC3(CCN(Cc4cc(Cl)ccc4OC(F)(F)F)C3)CC2)n1 [Example 371, 1-(2-(5-chloro-2-(trifluoromethoxy)-benzyl)-2,8-diazaspiro[4.5]-decane-8-carbonyl)-1H-pyrazole-3-carboxylic acid] | < 0.1 µM
C[C@H]1CN(Cc2cccc(Oc3cc(C(F)(F)F)ccn3)c2)CCN1C(=O)n1ccc(C(=O)O)n1 [Example 373, (S)-1-(2-methyl-4-(3-((4-(trifluoromethyl)-pyridin-2-yl)oxy)benzyl)-piperazine-1-carbonyl)-1H-pyrazole-3-carboxylic acid] | < 0.1 µM
C[C@@H]1CN(Cc2cccc(Oc3cc(C(F)(F)F)ccn3)c2)CCN1C(=O)n1ccc(C(=O)O)n1 [Example 374, (R)-1-(2-methyl-4-(3-((4-(trifluoromethyl)-pyridin-2-yl)oxy)benzyl)-piperazine-1-carbonyl)-1H-pyrazole-3-carboxylic acid] | < 0.1 µM
O=C(O)c1nn(C(=O)N2CCN(Cc3cc(F)cc(Oc4ccc(Cl)cc4)c3)CC2)cc1Cl [Example 378, 4-chloro-1-(4-(3-(4-chlorophenoxy)-5-fluorobenzyl)-piperazine-1-carbonyl)-1H-pyrazole-3-carboxylic acid] | < 0.1 µM
O=C(O)c1ccn(C(=O)N2CCN(Cc3ccc(C(F)(F)F)cc3N3CC4CCC(C3)O4)CC2)n1 [Example 380, 1-(4-(2-(8-oxa-3-azabicyclo[3.2.1]-octan-3-yl)-4-(trifluoromethyl)-benzyl)piperazine-1-carbonyl)-1H-pyrazole-3-carboxylic acid] | < 0.1 µM

Results, then the compound that gave them:

IC50 | SMILES
< 0.1 µM | O=C(O)c1nn(C(=O)N2C[C@H]3C[C@H](OCc4cccc(C(F)(F)F)c4)C[C@H]3C2)cc1Cl [Example 314, 4-chloro-1-(trans-5-((3-(trifluoromethyl)-benzyl)oxy)-octahydrocyclopenta-[c]pyrrole-2-carbonyl)-1H-pyrazole-3-carboxylic acid]
< 0.1 µM | O=C(O)c1ccn(C(=O)N2C[C@H]3C[C@H](Oc4ccc(Cl)c(-c5nccs5)c4)C[C@H]3C2)n1 [Example 318, 1-(trans-5-(4-chloro-3-(thiazol-2-yl)phenoxy)-octahydrocyclopenta-[c]pyrrole-2-carbonyl)-1H-pyrazole-3-carboxylic acid]
< 0.1 µM | O=C(O)c1ccn(C(=O)N2CCN(Cc3cc(F)cc(Oc4ccccc4Cl)c3)CC2)n1 [Example 319, 1-(4-(3-(2-chlorophenoxy)-5-fluorobenzyl)-piperazine-1-carbonyl)-1H-pyrazole-3-carboxylic acid]
< 0.1 µM | O=C(O)c1nn(C(=O)N2CCN(Cc3cccc(Oc4ccc(F)cc4)c3)CC2)cc1Cl [Example 320, 4-chloro-1-(4-(3-(4-fluorophenoxy)-benzyl)-piperazine-1-carbonyl)-1H-pyrazole-3-carboxylic acid]
< 0.1 µM | O=C(O)c1ccn(C(=O)N2CCN(Cc3cc(F)cc(Oc4cccc(Cl)c4)c3)CC2)n1 [Example 321, 1-(4-(3-(3-chlorophenoxy)-5-fluorobenzyl)-piperazine-1-carbonyl)-1H-pyrazole-3-carboxylic acid]
< 0.1 µM | O=C(O)c1nn(C(=O)N2CCN(Cc3cc(Cl)cc(-c4cncnc4)c3)CC2)cc1Cl [Example 323, 4-chloro-1-(4-(3-chloro-5-(pyrimidin-5-yl)benzyl)-piperazine-1-carbonyl)-1H-pyrazole-3-carboxylic acid]
< 0.1 µM | C[C@@H]1CN(Cc2ccc(C(F)(F)F)cc2N2CCCC2)CCN1C(=O)n1ccc(C(N)=O)n1 [Example 325, (R)-1-(2-methyl-4-(2-(pyrrolidin-1-yl)-4-(trifluoromethyl)-benzyl)piperazine-1-carbonyl)-1H-pyrazole-3-carboxamide]
< 0.1 µM | C[C@@H]1CN(Cc2ccc(C(F)(F)F)cc2N2CCCC2)CCN1C(=O)n1ccc(C(=O)O)n1 [Example 327, (R)-1-(2-methyl-4-(2-(pyrrolidin-1-yl)-4-(trifluoromethyl)-benzyl)-piperazine-1-carbonyl)-1H-pyrazole-3-carboxylic acid]
< 0.1 µM | O=C(O)c1ccn(C(=O)N2CCC(OCc3cc(N4CCCC4)cc(C(F)(F)F)c3)CC2)n1 [Example 331, 1-(4-((3-(pyrrolidin-1-yl)-5-(trifluoromethyl)-benzyl)-oxy)piperidine-1-carbonyl)-1H-pyrazole-3-carboxylic acid]
< 0.1 µM | O=C(O)c1ccn(C(=O)N2CCN(Cc3ccc(C(F)(F)F)cc3N3CC[C@@H](O)C3)CC2)n1 [Example 333, (R)-1-(4-(2-(3-hydroxypyrrolidin-1-yl)-4-(trifluoromethyl)-benzyl)-piperazine-1-carbonyl)-1H-pyrazole-3-carboxylic acid]
< 0.1 µM | O=C(O)c1ccn(C(=O)N2CCC3(CCN(Cc4cc(Cl)cc(Cl)c4Cl)C3)CC2)n1 [Example 337, 1-(2-(2,3,5-trichlorobenzyl)-2,8-diazaspiro[4.5]-decane-8-carbonyl)-1H-pyrazole-3-carboxylic acid]
< 0.1 µM | O=C(O)c1ccn(C(=O)N2CCC3(CCN(Cc4cccc(C(F)(F)F)c4Cl)C3)CC2)n1 [Example 339, 1-(2-(2-chloro-3-(trifluoromethyl)-benzyl)-2,8-diazaspiro[4.5]-decane-8-carbonyl)-1H-pyrazole-3-carboxylic acid]
< 0.1 µM | Cc1c(CO[C@H]2C[C@@H]3CN(C(=O)n4cc(Cl)c(C(=O)O)n4)C[C@@H]3C2)cccc1C(F)(F)F [Example 341, 4-chloro-1-(trans-5-((2-methyl-3-(trifluoromethyl)-benzyl)oxy)-octahydrocyclopenta-[c]pyrrole-2-carbonyl)-1H-pyrazole-3-carboxylic acid]
